Source: ChEMBL document CHEMBL5143571, “Design, synthesis and anti-breast cancer evaluation of biaryl pyridine analogues as potent RSK inhibitors” (Bioorg Med Chem Lett, 2022)
The source made the active and inactive calls. The calls are words filed in the database; no cut-off is given here.

Experiments:
HCC1806 [1] = experiment: Inhibition of RSK in human HCC1806 cells assessed as reduction in YB-1 phosphorylation at Ser102 residue at 5 uM incubated for 12 hrs by western blot analysis; format: cell-based
HCC1806 [2] = experiment: Anti-tumor activity against human HCC1806 cells assessed as inhibition of cell proliferation; format: functional, cell-based

SMILES | inhibition (HCC1806 [1]) | Activity (HCC1806 [2])
Clc1ccc(-c2ccncc2-c2ccc(OCc3ccccc3)c(NCc3ccccc3)c2)cc1 | Active | –
Cc1cc(C)cc(-c2ccncc2-c2ccc(O)c(O)c2)c1 | Active | –
CN1CCN(c2ccc(-c3ccncc3-c3cc(F)c(O)c(F)c3)cc2)CC1 | Active | Active
Cc1ccc(-c2ccncc2-c2ccc(O)c(O)c2)c2ccccc12 | Active | Active
O=Cc1ccc(-c2ccncc2-c2ccc(OCc3ccccc3)c(OCc3ccccc3)c2)cc1 | Active | –
